Key:
INDY [1] = target: T1, INDY (Homo sapiens, UniProt Q86YT5); experiment: 14C-citrate uptake in HepG2 cells endogenously expressing INDY (NaCT); type: cell-based; conditions: endogenous INDY
Procedure, shortened: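 HepG2 cells, which express INDY endogenously, were preincubated with compound for 5 min at 37 °C in pH 6.5 Na+ citrate uptake buffer. 14C-citrate ([…]) was then added for 90 min at 37 °C. After washing and NaOH lysis, uptake was measured by scintillation counting, with 5 mM citrate as positive control.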

INDY [2] = target: T1, INDY; experiment: 14C-citrate uptake in HEK293 cells overexpressing recombinant human INDY (NaCT); type: cell-based; parameters: expressed in transfected cells; host or cells: HEK293
Procedure, shortened: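 HEK293 cells overexpressing human NaCT, 50,000/well, preincubated 5-30 min at 37 °C with compound in pH 6.5 Na+ buffer. 14C-citrate ([…]) uptake then ran 20-90 min at 37 °C, followed by ice-cold washes, NaOH lysis and scintillation counting. 10 mM citrate served as positive control.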

T1 sequence (Q86YT5 whole entry): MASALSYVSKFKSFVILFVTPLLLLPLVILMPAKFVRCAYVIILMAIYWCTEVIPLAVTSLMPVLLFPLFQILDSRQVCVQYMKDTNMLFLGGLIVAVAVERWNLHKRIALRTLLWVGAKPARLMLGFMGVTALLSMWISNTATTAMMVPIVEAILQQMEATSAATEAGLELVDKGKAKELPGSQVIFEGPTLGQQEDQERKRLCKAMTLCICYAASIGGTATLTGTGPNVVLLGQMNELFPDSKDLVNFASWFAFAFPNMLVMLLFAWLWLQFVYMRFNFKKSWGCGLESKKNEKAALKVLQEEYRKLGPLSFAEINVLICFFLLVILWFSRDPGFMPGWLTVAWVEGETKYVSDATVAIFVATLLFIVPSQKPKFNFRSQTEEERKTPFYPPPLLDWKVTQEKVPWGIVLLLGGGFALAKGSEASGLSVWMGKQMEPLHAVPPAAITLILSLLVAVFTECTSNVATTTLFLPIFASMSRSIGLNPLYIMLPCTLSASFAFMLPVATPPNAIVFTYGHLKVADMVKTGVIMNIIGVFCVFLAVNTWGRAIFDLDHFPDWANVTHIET

Row | Compound | IC50 (INDY [1]) | IC50 (INDY [2])
1 | O=C(NCc1ccccc1F)C1CCN(S(=O)(=O)/C=C/c2ccccc2)CC1 [Example 5] | 2000 nM | 2900 nM
2 | CC(C)(C)c1ccc(S(=O)(=O)N2CCC(C(=O)NCc3ccccc3F)CC2)cc1 [Example 12, 1-(4-tert-butylbenzenesulfonyl)-N-[(2-fluorophenyl)methyl]piperidine-4-carboxamide] | 1000 nM | 200 nM
3 | O=C(NCc1ccccc1F)C1CCN(S(=O)(=O)c2ccc(C(F)(F)F)cc2)CC1 [Example 25, N-[(2-fluorophenyl)methyl]-1-[4-(trifluoromethyl)benzenesulfonyl]piperidine-4-carboxamide] | 300 nM | > 20000 nM
4 | O=C(NCc1ccccc1F)C1CCN(S(=O)(=O)c2cc(Cl)cc(Cl)c2)CC1 [Example 44, 1-(3,5-dichlorobenzenesulfonyl)-N-[(2-fluorophenyl)methyl]piperidine-4-carboxamide] | 100 nM | 100 nM
5 | COc1ccccc1CNC(=O)C1CN(S(=O)(=O)c2ccc(C(C)(C)C)cc2)C1 [Example 50, 1-(4-tert-butylbenzenesulfonyl)-N-[(2-methoxyphenyl)methyl]azetidine-3-carboxamide] | 7000 nM | 4400 nM
6 | O=C(NCc1ccccn1)C1CCN(S(=O)(=O)c2cc(Cl)cc(Cl)c2)CC1 [Example 55, 1-(3,5-dichlorobenzenesulfonyl)-N-[(pyridin-2-yl)methyl]piperidine-4-carboxamide] | 400 nM | 800 nM
7 | O=C(NCc1ccccn1)C1CCN(S(=O)(=O)c2ccc(C(F)(F)F)cc2)CC1 [Example 57, N-[(pyridin-2-yl)methyl]-1-[4-(trifluoromethyl)benzenesulfonyl]piperidine-4-carboxamide] | 2500 nM | 4100 nM
8 | O=C(NCc1ccccn1)C1CCN(S(=O)(=O)c2ccc(S(F)(F)(F)(F)F)cc2)CC1 [Example 86, 1-[4-(pentafluoro-lambda6-sulfanyl)benzenesulfonyl]-N-[(pyridin-2-yl)methyl]pipendine-4-carboxamide] | 400 nM | 1100 nM
9 | O=C(NCc1ccccc1CO)C1CCN(S(=O)(=O)c2cc(Cl)cc(Cl)c2)CC1 [Example 87, 1-(3,5-dichlorobenzenesulfonyl)-N-{[2-(hydroxymethyl)phenyl]methyl}piperidine-4-carboxamide] | 200 nM | 600 nM
10 | O=C(NCc1ccccn1)C1CCN(S(=O)(=O)c2cc(Cl)cc(C3CC3)c2)CC1 [Example 101, 1-(3-chloro-5-cyclopropylbenzenesulfonyl)-N-[(pyridin-2-yl)methyl]piperidine-4-carboxamide] | 100 nM | 300 nM
